Measurements published in patent publication US5070210A, “Novel ketenimines as intermediates for insecticides” (ICI Americas Inc., priority 1990, dated 1991).

Experiments:
Type in all cases: in vivo
[1] = system: Housefly [Musca domestica]; assay: Housefly insecticidal test; settings: μg per 25 female flies; mortality after 48 hours
Procedure, shortened: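 Residual contact test: acetone dilution, 0.01% peanut oil spreader, solvent evaporated; 25 ♀ flies (1-2 d old) per cage; sugar-water plug; 48 h mortality read. LC50 in μg/25 female flies, from dose-mortality curves; top dose 100 μg/25 flies.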

[2] = system: Tobacco Budworm [Heliothis virescens (Fabricius)] larvae; assay: Tobacco budworm contact test; settings: second-instar larvae, percent in solution, 5 days
Procedure, shortened: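 Cotton cotyledons dipped 2–3 s in compound in 50-50 acetone-water, dried, then infested with 5 second-instar larvae and held 5 days at high humidity. Mortality scored; LC50 from dosage-mortality curves, expressed as percent compound in solution, concentrations from 0.1% downward.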

[3] = system: Tobacco Budworm [Heliothis virescens (Fabricius)] eggs; assay: Tobacco budworm egg test; settings: 2-day old eggs, percent in solution
Procedure, shortened: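 LC50 values (percent test compound in the dip solution) were calculated from dosage-mortality curves. Egg patches, 2 days old, were dipped in acetone solutions at concentrations from 0.1% downward and held at 78° F on rearing medium until control larvae hatched and fed.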

[4] = system: Beet Armyworm (Spodoptera exigua); assay: Beet armyworm insecticidal test; settings: second-instar larvae, percent in solution; five days
Procedure, shortened: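 Sugar beet leaves dipped 2–3 s in compound diluted in 50:50 acetone-water, dried, then infested with five second-instar larvae in humid petri dishes. Mortality scored at 5 days; concentrations from 0.1% downward. LC50 from dosage-mortality curves, expressed as percent compound in solution.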

[5] = system: Cabbage Looper [Trichoplusia ni (Hubner)]; assay: Cabbage looper insecticidal test; settings: second-instar larvae, percent in solution; 3-5 days
Procedure, shortened: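 Leaf dip, squash cotyledons, 50-50 acetone-water, top dose 0.1% and lower. 5 second-instar larvae/dish, moist filter paper, high-humidity chamber. Mortality at 3-5 d; LC50 (% in solution) from dosage-mortality curves.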

[6] = system: Aster Leafhopper [Macrosteles fascifrens (Stal)]; assay: Aster leafhopper insecticidal test; settings: adults/nymphs, percent in solution; 48 hours
Procedure, shortened: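 Three ~10 cm oat seedlings per cup were dipped 2-3 seconds in 50-50 acetone-water compound solutions, dried, and caged with ten adult/nymph leafhoppers. Mortality was counted after 48 hours at concentrations from 0.05% downward. LC50, as percent compound in solution, came from dosage-mortality curves.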

[7] = system: Rice water weevil [Lissorhoptrus oryzophilus (Kuschel)]; assay: Rice water weevil insecticidal test; settings: topical, μg per weevil; 48 hours
Procedure: The compounds in Tables 1 and 2 above were tested for insecticidal activity using the following testing procedures. LC50 values, based on the results of these tests and calculated according to dosage-mortality curves, are expressed in Table 3.
Rice water weevil [Lissorhoptrus oryzophilus (Kuschel)]:
Test compounds were diluted in acetone. Droplets (1 μl) of test solutions were applied to the ventral abdomens of ten female adult weevils. The treated weevils were placed in containers with wet cotton balls and rice foliage. The containers were covered and kept at a temperature of about 25° C. Mortality was recorded after 48 hours. Test concentrations ranged from […] or 2.5 μg per weevil down to that at which 50% mortality occurred. The LC50 values are expressed below in Table 3 under the heading "RWW" in terms of μg of test compound per weevil.

[8] = system: Maize weevil [Sitophilus Zeamais (Motschulsky)]; assay: Maize weevil insecticidal test; settings: adult weevils, percent in solution; 48 hours
Procedure, shortened: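 LC50, in percent of compound in solution, was derived from dosage-mortality curves after 48 h at about 25 °C. Ten adult weevils per container fed on four corn seeds briefly immersed in acetone:water (50:50) solutions of up to 0.01% and dried.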

SMILES | LC50, HF [1] [µg] | LC50, TBW, C (TBW-C) [2] [%] | LC50, TBW, E (TBW-E) [3] [%] | LC50, BAW [4] [%] | LC50, CL [5] [%] | LC50, LH [6] [%] | LC50, RWW [7] [µg] | LC50, MW [8] [%]
CC(C)C(=Nc1cc(F)cc(F)c1)OCc1cccc(Oc2ccccc2)c1 [Compound 55] | > 100 | 0.004 | 0.06 | 0.006 | 0.0017 | 0.0005 | > 2.5 | 
FC(F)(F)c1cccc(N=C(OCc2cccc(Oc3ccccc3)c2)C(Cl)Cl)c1 [Compound 66] | 9.7 |  | 0.06 | 0.0065 | < 0.0025 | 0.001 | > 2.5 | 
CC(C)C(=Nc1ccc(F)c(Cl)c1)OCc1cccc(Oc2ccccc2)c1 [Compound 81] | 4 | 0.0009 | 0.007 | 0.003 | 0.0006 | 0.0003 | > 0.5 | 0.005
CC(C)C(=Nc1ccc(F)c(Cl)c1)OCc1ccc(F)c(Oc2ccccc2)c1 [Compound 82] | 2.5 | 0.0008 | 0.006 | 0.0025 | 0.00018 | 0.0001 | 0.086 | 
CC(C)C(=Nc1ccc(F)c(Cl)c1)OCc1cccc(Oc2ccc(F)cc2)c1 [Compound 89] | 5 | 0.0005 | 0.04 | 0.009 | 0.00003 | 0.001 | > 2.5 | 0.005
CC(C)C(=Nc1ccc2c(c1)OCO2)OCc1cccc(Oc2ccccc2)c1 [Compound 180] | 2 | 0.003 | 0.03 | 0.005 | 0.0004 | 0.0015 | > 2.5 | 0.008
CC(C)C(=Nc1ccc2c(c1)OCO2)OCc1ccc(F)c(Oc2ccccc2)c1 [Compound 181] | 25 | 0.001 | 0.01 | 0.001 | 0.0005 |  | > 2.5 | 0.005
CC(C)C(=Nc1ccc(F)c(Cl)c1)OCc1ccc(F)c(Oc2ccc(F)cc2)c1 [Compound 216] | 2 | 0.00018 | 0.005 | 0.0007 | 0.000007 | 0.00025 | 0.067 | 0.0017
CC(C)C(=Nc1ccc2c(c1)OC(F)(F)O2)OCc1cccc(Oc2ccc(F)cc2)c1 [Compound 244] | 14 | 0.00025 | > 0.1 | 0.002 | 0.00004 |  | 0.09 | 0.0025
CC(C)C(=Nc1ccc2c(c1)OC(F)(F)O2)OCc1cccc(Oc2ccccc2)c1 [Compound 245] | 20 | 0.0015 | 0.016 | 0.001 | 0.0035 |  | > 2.5 | 0.006
CC(C)C(=Nc1ccc(F)c(I)c1)OCc1ccc(F)c(Oc2ccc(F)cc2)c1 [Compound 281] | 5 | 0.00025 | 0.006 | 0.0027 | 0.00002 |  | > 2.5 | 0.005
CC(C)C(=Nc1ccc2c(c1)OC(F)(F)O2)OCc1ccc(F)c(Oc2ccccc2)c1 [Compound 285] | 36 | 0.00017 | 0.005 | 0.0006 | 0.000075 |  | 0.13 | 0.005
CC(C)C(=Nc1ccc(C(F)(F)F)cc1)OCc1ccc(F)c(Oc2ccc(Cl)cc2)c1 [Compound 324] | > 100 | 0.0004 | 0.025 | 0.0024 | 0.00014 |  | 0.06 | 
CC(C)C(=Nc1ccc(F)cc1)OCc1ccc(F)c(Oc2ccc(Cl)cc2)c1 [Compound 325] | 5 | 0.0006 | 0.037 | 0.0025 | 0.00012 |  | > 2.5 | 
CC(C)C(=Nc1ccc(F)c(Cl)c1F)OCc1cccc(Oc2ccc(Cl)cc2)c1 [Compound 331] | 20 | 0.0004 | 0.04 | 0.002 | 0.0002 |  | > 2.5 | 
CC(C)C(=Nc1ccc(F)c(F)c1)OCc1ccc(F)c(Oc2ccccc2)c1 [Compound 336] | 3.6 | 0.0005 | 0.02 | 0.001 | 0.00017 |  | > 2.5 | 0.0091
CC(C)C(=Nc1ccc(C(F)(F)F)cc1)OCc1ccc(F)c(Oc2ccccc2)c1 [Compound 337] | 21 | 0.0005 | 0.008 | 0.0005 | 0.0007 |  | 0.067 | 0.0053
CC(C)C(=Nc1ccc(F)c(F)c1F)OCc1ccc(F)c(Oc2ccc(F)cc2)c1 [Compound 349] | 4.9 | 0.0004 | > 0.1 | > 0.1 | 0.00007 |  | > 2.5 | > 0.01
